Measurements reported in ChEMBL document CHEMBL1152182, “Synthesis and structure-activity relationship of 7-azaindole piperidine derivatives as CCR2 antagonists” (Bioorg Med Chem Lett, 2008).
Values belong to the compound of their own block, whether it stands above or below them.

Assays:
[1] = target: T1, Cytochrome P450 1A2 (Homo sapiens, UniProt P05177); experiment: Inhibition of human CYP1A2; assay type: ADME
T1 sequence (P05177 whole entry): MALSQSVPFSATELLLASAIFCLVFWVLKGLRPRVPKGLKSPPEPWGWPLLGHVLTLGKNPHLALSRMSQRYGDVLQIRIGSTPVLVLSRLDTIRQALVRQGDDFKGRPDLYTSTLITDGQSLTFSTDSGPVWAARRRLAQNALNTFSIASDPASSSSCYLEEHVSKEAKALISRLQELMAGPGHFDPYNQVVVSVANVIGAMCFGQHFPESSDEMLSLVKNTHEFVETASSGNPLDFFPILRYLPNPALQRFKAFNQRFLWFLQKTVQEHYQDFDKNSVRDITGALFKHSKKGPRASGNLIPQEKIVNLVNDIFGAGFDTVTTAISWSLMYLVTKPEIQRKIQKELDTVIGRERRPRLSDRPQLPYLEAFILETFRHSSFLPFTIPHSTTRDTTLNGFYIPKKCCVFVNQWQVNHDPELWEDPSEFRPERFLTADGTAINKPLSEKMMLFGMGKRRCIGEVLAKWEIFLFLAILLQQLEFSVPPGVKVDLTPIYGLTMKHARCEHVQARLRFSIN

[2] = target: T2, Cytochrome P450 3A4 (Homo sapiens, UniProt P08684); experiment: Inhibition of human CYP3A4 using dibenzylfluorescein as substrate; assay type: ADME
[3] = target: T2, Cytochrome P450 3A4; experiment: Inhibition of human CYP3A4 using 7-benzyloxy-4-trifluoromethylcoumarin as substrate; assay type: ADME
[4] = Cmax in rat at 10 mg/kg, po; assay type: ADME, organism-based; set-up: dose 10 mg/kg, route oral; details: in vivo
[5] = Half life in rat at 10 mg/kg, po; assay type: ADME, organism-based; set-up: dose 10 mg/kg, route oral; details: in vivo
[6] = Oral bioavailability in rat at 10 mg/kg; assay type: ADME, organism-based; details: in vivo
[7] = target: Cytochrome P450 2C19 (Homo sapiens, UniProt P33261); experiment: Inhibition of human CYP2C19; assay type: ADME
[8] = target: C-C chemokine receptor type 2 (Homo sapiens, UniProt P41597); experiment: Antagonist activity at human CCR2; assay type: functional
[9] = target: T2, Cytochrome P450 3A4; experiment: Inhibition of human CYP3A4 using 7-benzyloxyquinoline as substrate; assay type: ADME
[10] = target: Cytochrome P450 2D6 (Homo sapiens, UniProt P10635); experiment: Inhibition of human CYP2D6; assay type: ADME
Chain of Cytochrome P450 2D6 (P10635 whole entry): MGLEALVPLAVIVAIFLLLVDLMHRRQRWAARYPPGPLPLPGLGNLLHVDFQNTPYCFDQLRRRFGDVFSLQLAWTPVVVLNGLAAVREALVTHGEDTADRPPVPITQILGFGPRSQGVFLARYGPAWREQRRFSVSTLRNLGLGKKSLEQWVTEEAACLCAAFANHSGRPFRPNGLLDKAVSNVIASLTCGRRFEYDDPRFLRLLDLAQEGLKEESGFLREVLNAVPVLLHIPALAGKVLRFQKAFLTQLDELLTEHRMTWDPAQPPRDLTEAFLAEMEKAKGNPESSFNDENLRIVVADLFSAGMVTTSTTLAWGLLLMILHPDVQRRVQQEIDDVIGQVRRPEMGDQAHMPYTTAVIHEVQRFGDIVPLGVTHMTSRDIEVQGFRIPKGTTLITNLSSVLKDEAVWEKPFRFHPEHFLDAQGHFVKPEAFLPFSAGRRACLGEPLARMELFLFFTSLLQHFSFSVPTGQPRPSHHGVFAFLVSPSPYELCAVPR

T2 sequence (P08684 whole entry): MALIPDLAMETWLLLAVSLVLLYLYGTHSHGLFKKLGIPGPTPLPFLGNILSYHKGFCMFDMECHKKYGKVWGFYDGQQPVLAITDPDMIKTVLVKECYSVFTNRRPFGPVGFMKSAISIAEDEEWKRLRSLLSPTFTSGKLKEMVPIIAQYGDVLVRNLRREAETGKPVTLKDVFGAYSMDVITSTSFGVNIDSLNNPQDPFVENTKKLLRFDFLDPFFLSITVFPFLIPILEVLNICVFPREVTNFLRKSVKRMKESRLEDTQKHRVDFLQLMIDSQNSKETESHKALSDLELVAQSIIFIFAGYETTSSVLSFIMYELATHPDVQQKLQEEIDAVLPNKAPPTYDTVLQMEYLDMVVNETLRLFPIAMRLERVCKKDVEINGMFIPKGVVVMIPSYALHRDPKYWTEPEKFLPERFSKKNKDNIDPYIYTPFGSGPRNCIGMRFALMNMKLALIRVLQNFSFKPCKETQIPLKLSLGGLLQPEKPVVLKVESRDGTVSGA
Chain of C-C chemokine receptor type 2 (P41597 whole entry): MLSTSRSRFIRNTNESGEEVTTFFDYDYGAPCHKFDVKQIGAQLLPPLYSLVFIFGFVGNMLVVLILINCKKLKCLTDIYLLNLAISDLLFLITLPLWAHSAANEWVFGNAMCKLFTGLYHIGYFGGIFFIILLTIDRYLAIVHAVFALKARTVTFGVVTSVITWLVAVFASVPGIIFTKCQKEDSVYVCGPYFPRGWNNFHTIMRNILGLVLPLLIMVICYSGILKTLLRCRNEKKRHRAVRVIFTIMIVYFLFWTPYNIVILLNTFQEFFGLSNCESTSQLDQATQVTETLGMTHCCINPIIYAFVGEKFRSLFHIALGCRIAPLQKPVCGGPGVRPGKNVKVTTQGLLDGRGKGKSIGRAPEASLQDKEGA
Chain of Cytochrome P450 2C19 (P33261 whole entry): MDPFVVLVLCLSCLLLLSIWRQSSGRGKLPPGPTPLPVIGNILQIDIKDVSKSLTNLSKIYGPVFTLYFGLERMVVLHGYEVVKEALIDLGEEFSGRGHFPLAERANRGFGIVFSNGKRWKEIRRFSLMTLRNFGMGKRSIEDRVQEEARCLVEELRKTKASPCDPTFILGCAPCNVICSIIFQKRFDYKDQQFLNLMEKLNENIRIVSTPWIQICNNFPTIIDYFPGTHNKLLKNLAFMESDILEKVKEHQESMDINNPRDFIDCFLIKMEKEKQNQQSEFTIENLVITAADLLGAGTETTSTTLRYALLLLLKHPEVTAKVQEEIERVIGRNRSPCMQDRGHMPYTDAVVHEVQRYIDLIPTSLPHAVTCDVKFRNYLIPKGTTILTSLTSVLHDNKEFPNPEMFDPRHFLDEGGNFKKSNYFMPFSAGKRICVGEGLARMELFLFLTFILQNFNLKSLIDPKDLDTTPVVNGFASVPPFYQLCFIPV

SMILES: O=C(/C=C/c1cc(F)c(F)c(F)c1)N1CCC(C(CO)N2CCC(c3c[nH]c4ncccc34)CC2)CC1 (racemic)
- IC50 [8]: 7 nM

SMILES: O=C(/C=C/c1ccc(Cl)c(Cl)c1)N1CCC(C(CO)N2CCC(c3c[nH]c4ncccc34)CC2)CC1 (racemic)
- IC50 [8]: 6 nM

SMILES: O=C(Nc1ccc(Cl)c(Cl)c1)N1CCC(C(CO)N2CCC(c3c[nH]c4ncccc34)CC2)CC1 (racemic)
- IC50 [8]: 14 nM

SMILES: O=C(O)C(C1CCN(C(=O)/C=C/c2cc(F)c(F)c(F)c2)CC1)N1CCC(c2c[nH]c3ncccc23)CC1 (stereo unspecified)
- IC50 [8]: 17 nM

SMILES: O=C(/C=C/c1cc(F)c(F)c(F)c1)N1CCC(CN2CCC(c3c[nH]c4ncccc34)CC2)CC1
- IC50 [8]: 1300 nM

Continued by falling IC50 [8], values first:

- IC50 [8]: 6 nM
SMILES: O=C(/C=C/c1cc(F)cc(F)c1)N1CCC(C(CO)N2CCC(c3c[nH]c4ncccc34)CC2)CC1 (racemic)

- IC50 [1]: > 40000 nM
- IC50 [2]: 20600 nM
- IC50 [3]: 25200 nM
- Cmax [4]: 341 ng/mL
- half-life [5]: 5.6 h
- bioavailability [6]: 36%
- IC50 [7]: 27100 nM
- IC50 [8]: 4 nM
- IC50 [9]: > 40000 nM
- IC50 [10]: 13300 nM
SMILES: O=C(/C=C/c1cc(F)cc(F)c1)N1CCC([C@@H](CO)N2CCC(c3c[nH]c4ncccc34)CC2)CC1
